Values of other authors in patent US20240207454A1, “NEURO-BEHAVIORAL ASSAY FOR PHYSIOLOGICAL EVALUATION OF WATER-SOLUBLE ANESTHETICS” (Northeastern University, priority 2022, published 2024).

Key:
[1] = target: T1, Nav 1.7 (Homo sapiens, UniProt Q15858); conditions: Nav 1.7-transfected CHO cells; cited from earlier work
T1 construct: host or cells: CHO cells (transfected)

[2] = test system: GABAA receptors; conditions: receptors expressed in Xenopus oocytes; cited from earlier work

T1 sequence (Q15858 whole entry): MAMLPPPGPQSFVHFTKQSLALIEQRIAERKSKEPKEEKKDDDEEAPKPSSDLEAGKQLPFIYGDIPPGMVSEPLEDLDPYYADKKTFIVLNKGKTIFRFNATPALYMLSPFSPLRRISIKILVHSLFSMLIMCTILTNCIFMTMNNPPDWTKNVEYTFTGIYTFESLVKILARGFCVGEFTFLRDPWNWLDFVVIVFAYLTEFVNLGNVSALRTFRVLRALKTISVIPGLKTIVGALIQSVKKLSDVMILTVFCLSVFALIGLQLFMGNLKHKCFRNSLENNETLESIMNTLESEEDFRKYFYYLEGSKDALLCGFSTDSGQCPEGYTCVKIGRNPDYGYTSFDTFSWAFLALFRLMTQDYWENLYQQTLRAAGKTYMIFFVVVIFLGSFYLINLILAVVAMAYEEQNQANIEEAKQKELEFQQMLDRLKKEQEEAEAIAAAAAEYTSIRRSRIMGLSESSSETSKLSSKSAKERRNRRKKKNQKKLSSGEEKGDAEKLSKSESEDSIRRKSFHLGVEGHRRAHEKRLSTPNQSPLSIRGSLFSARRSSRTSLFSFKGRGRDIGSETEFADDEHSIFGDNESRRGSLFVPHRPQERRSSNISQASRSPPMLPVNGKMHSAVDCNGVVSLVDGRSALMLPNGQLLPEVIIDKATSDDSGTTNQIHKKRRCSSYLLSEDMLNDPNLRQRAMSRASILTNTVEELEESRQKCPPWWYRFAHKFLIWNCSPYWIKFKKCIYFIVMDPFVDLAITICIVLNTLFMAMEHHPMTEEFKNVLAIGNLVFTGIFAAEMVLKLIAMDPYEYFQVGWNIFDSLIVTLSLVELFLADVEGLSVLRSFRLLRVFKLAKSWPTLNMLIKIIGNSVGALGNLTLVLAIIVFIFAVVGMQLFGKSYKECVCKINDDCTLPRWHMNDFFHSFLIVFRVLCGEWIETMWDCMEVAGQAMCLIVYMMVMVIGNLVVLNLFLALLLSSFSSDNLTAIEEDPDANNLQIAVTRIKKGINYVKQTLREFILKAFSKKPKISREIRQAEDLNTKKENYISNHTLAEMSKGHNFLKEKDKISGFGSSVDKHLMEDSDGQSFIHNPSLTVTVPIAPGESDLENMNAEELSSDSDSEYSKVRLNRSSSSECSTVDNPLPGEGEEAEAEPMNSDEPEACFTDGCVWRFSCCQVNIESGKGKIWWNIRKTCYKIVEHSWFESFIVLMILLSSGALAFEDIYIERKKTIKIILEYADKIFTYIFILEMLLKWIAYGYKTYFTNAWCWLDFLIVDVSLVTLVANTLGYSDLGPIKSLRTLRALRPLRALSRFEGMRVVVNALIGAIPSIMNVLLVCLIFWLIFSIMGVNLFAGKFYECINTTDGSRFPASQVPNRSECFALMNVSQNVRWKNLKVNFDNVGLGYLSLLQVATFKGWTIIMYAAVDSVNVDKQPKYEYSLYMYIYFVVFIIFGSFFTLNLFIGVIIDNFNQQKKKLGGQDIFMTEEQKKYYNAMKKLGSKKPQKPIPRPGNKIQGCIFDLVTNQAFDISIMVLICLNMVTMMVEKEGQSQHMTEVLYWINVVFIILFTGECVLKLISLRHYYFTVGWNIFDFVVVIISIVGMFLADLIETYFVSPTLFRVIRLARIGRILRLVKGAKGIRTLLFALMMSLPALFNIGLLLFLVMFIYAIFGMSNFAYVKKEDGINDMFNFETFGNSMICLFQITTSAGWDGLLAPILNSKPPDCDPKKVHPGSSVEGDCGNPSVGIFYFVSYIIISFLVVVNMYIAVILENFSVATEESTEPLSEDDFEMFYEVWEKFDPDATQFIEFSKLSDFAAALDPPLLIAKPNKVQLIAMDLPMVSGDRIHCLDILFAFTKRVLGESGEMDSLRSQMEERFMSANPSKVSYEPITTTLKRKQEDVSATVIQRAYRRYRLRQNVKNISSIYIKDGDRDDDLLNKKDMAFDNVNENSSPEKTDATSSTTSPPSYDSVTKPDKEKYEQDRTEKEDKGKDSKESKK

C=CCc1ccc(O)c(OC)c1 [eugenol]
Binding to voltage-gated sodium channels [1]: preferentially binds to such channels in the inactivated state | Effect on GABAA-receptor response [2]: potentiate GABAA-receptor response
